Data on 30 compounds can be found in patent US8846933B2, “N-link hydroxamic acid derivatives useful as antibacterial agents” (Pfizer Inc., priority 2009, dated 2014).

Test [1] relates to Escherichia coli EC-1: VOGEL, mouse virulent. Nature of the test: MIC determination (CLSI), strain EC-1. It is filed as cell-based. The note with it: strain EC-1, unit assumed. An outline of the steps:
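The mouse-virulent VOGEL isolate of E. coli, EC-1, served as test organism. Minimum inhibitory concentration was measured by CLSI dilution methodology (M7-A7; M100-S18 standards).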

In test [2] the test system is Pseudomonas aeruginosa UI-18: Wild-type (PA-7). Kind of test: MIC determination (CLSI), strain PA-7. The note with it: strain PA-7, unit assumed. It is filed as cell-based. The procedure, abridged: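 Strain tested was P. aeruginosa UI-18, a wild-type isolate labelled PA-7. Minimum inhibitory concentrations followed CLSI dilution methodology for aerobically growing bacteria (M7-A7, M100-S18).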

The mark [3] stands for this setting: generated in the same manner as in Table 4.

For the compound `C[C@@](CCn1ccc(-c2ccc(Oc3noc4ccccc34)cc2)cc1=O)(C(=O)NO)S(C)(=O)=O` [Example 450, (2R)-4-{4-[4-(1,2-benzisoxazol-3-yloxy)phenyl]-2-oxopyridin-1(2H)-yl}-N-hydroxy-2-methyl-2-(methylsulfonyl)butanamide], in test [1], the EC-1 (MIC) was found to be 0.06 µg/mL. In addition, the PA-7 (MIC) in test [2] turned out to be 2 µg/mL.
Regarding `C[C@@](CCn1ccc(-c2ccc(OC[C@H]3CC[C@@H](O)CC3)c(F)c2)cc1=O)(C(=O)NO)S(C)(=O)=O` [Example 348, (2R)-4-[4-{3-fluoro-4-[(cis-4-hydroxycyclohexyl)methoxy]phenyl}-2-oxopyridin-1(2H)-yl]-N-hydroxy-2-methyl-2-(methylsulfonyl)butanamide], in test [1], the EC-1 (MIC) was found to be 0.25 µg/mL. Besides, in test [2], the PA-7 (MIC) came to 1 µg/mL.
For `C[C@@](CCn1ccc(-c2ccc3c(c2)OCCCO3)cc1=O)(C(=O)NO)S(C)(=O)=O` [Example 330, (2R)-4-[4-(3,4-dihydro-2H-1,5-benzodioxepin-7-yl)-2-oxopyridin-1(2H)-yl]-N-hydroxy-2-methyl-2-(methylsulfonyl)butanamide], in that order: 0.5 µg/mL and 4 µg/mL.
In test [1], `CC(=O)c1ccc(-c2ccn(CC[C@](C)(C(=O)NO)S(C)(=O)=O)c(=O)c2)c(F)c1` [Example 320] came in with an EC-1 (MIC) of 1 µg/mL. Besides, the PA-7 (MIC) in test [2] is 2 µg/mL.
In test [1], `C[C@@](CCn1ccc(-c2ccc(F)cc2F)cc1=O)(C(=O)NO)S(C)(=O)=O` [Example 321, (2R)-4-[4-(2,4-difluorophenyl)-2-oxopyridin-1(2H)-yl]-N-hydroxy-2-methyl-2-(methylsulfonyl)butanamide] showed an EC-1 (MIC) of 1 µg/mL. This compound returned a PA-7 (MIC) in test [2] of 1 µg/mL.
`CC(CCn1ccc(-c2ccc(OCCCCCO)cc2)cc1=O)(C(=O)NO)S(C)(=O)=O` (stereo not drawn) [Example 229, N-hydroxy-4-[4-{4-[(5-hydroxypentyl)oxy]phenyl}-2-oxopyridin-1(2H)-yl]-2-methyl-2-(methylsulfonyl)butanamide] yielded an EC-1 (MIC) in test [1] of 0.25 µg/mL. The compound further yielded a PA-7 (MIC) in test [2] of 2 µg/mL.
As for `CC(CCn1ccc(-c2cc(F)cc(Cl)c2)cc1=O)(C(=O)NO)S(C)(=O)=O` (stereo not drawn) [Example 121, 4-[4-(3-chloro-5-fluorophenyl)-2-oxopyridin-1(2H)-yl]-N-hydroxy-2-methyl-2-(methylsulfonyl)butanamide], the EC-1 (MIC) in test [1] (setting [3]) was 8 µg/mL. This compound also came in with a PA-7 (MIC) in test [2] (setting [3]) of 16 µg/mL.
Turning to `C[C@@](CCn1ccc(-c2ccc(SCCCCO)cc2)cc1=O)(C(=O)NO)S(C)(=O)=O` [Example 319], the EC-1 (MIC) in test [1] amounted to 0.25 µg/mL. Besides, the PA-7 (MIC) in test [2] was found to be 1 µg/mL.
`CC(CCn1ccc(-c2ccc(C(=O)CO)cc2)cc1=O)(C(=O)NO)S(C)(=O)=O` (stereo not drawn) [Example 73, 4-[4-(4-glycoloylphenyl)-2-oxopyridin-1(2H)-yl]-N-hydroxy-2-methyl-2-(methylsulfonyl)butanamide] registered an EC-1 (MIC) in test [1] (setting [3]) greater than 64 µg/mL. The PA-7 (MIC) in test [2] (setting [3]) turned out to be 64 µg/mL.
For `CC(CCn1ccc(-c2ccc(OCCN3CCOCC3)cc2)cc1=O)(C(=O)NO)S(C)(=O)=O` (stereo not drawn) [Example 94], in that order: 2 µg/mL and 4 µg/mL.
Take `Cc1ccc(-c2ccn(CCC(C)(C(=O)NO)S(C)(=O)=O)c(=O)c2)cc1` (stereo not drawn) [Example 190, N-hydroxy-2-methyl-4-[4-(4-methylphenyl)-2-oxopyridin-1(2H)-yl]-2-(methylsulfonyl)butanamide]: the EC-1 (MIC) in test [1] was determined as 1 µg/mL. In test [2], this compound displayed a PA-7 (MIC) of 1 µg/mL.
On to `CC(CCn1ccc(-c2ccc(OCCCO)cc2Cl)cc1=O)(C(=O)NO)S(C)(=O)=O` (stereo not drawn) [Example 251, 4-{4-[2-chloro-4-(3-hydroxypropoxy)phenyl]-2-oxopyridin-1(2H)-yl}-N-hydroxy-2-methyl-2-(methylsulfonyl)butanamide], for which, in test [1], the EC-1 (MIC) stood at 2 µg/mL. This compound registered a PA-7 (MIC) in test [2] of 4 µg/mL.
In test [1] (setting [3]), `CC(CCn1ccc(-c2ccc(OCCCCO)cc2)cc1=O)(C(=O)NO)S(C)(=O)=O` (stereo not drawn) [Example 75, N-hydroxy-4-{4-[4-(4-hydroxybutoxy)phenyl]-2-oxopyridin-1(2H)-yl}-2-methyl-2-(methylsulfonyl)butanamide] showed an EC-1 (MIC) of 2 µg/mL. Further, the PA-7 (MIC) in test [2] (setting [3]) was determined as 4 µg/mL.
For `CC(CCn1ccc(-c2ccc(OCCN3CCCC3)cc2)cc1=O)(C(=O)NO)S(C)(=O)=O` (stereo not drawn) [Example 74], in that order: greater than 64 µg/mL and greater than 64 µg/mL.
On to `Cc1c(-c2cccc(Cl)c2F)ccn(CC[C@](C)(C(=O)NO)S(C)(=O)=O)c1=O` [Example 413, (2R)-4-[4-(3-chloro-2-fluorophenyl)-3-methyl-2-oxopyridin-1(2H)-yl]-N-hydroxy-2-methyl-2-(methylsulfonyl)butanamide], for which the EC-1 (MIC) in test [1] came to 2 µg/mL. In test [2], this compound returned a PA-7 (MIC) of 2 µg/mL.
`COc1ccc(-c2ccn(CCC(C)(C(=O)NO)S(C)(=O)=O)c(=O)c2)c(C)n1` (stereo not drawn) [Example 200, N-hydroxy-4-(6-methoxy-2-methyl-2′-oxo-3,4′-bipyridin-1′(2′H)-yl)-2-methyl-2-(methylsulfonyl)butanamide]: the EC-1 (MIC) in test [1] turned out to be 32 µg/mL. The same compound gave a PA-7 (MIC) in test [2] of 16 µg/mL.
Regarding `CC(CCn1ccc(-c2ccc(OCCO)cc2F)cc1=O)(C(=O)NO)S(C)(=O)=O` (stereo not drawn) [Example 85, 4-{4-[2-fluoro-4-(2-hydroxyethoxy)phenyl]-2-oxopyridin-1(2H)-yl}-N-hydroxy-2-methyl-2-(methylsulfonyl)butanamide], the EC-1 (MIC) in test [1] (setting [3]) turned out to be 16 µg/mL. In test [2] (setting [3]), this compound displayed a PA-7 (MIC) of 16 µg/mL.
Regarding `C[C@@](CCn1ccc(-c2ccc(Oc3nccc4occc34)cc2)cc1=O)(C(=O)NO)S(C)(=O)=O` [Example 437, (2R)-4-{4-[4-(furo[3,2-c]pyridin-4-yloxy)phenyl]-2-oxopyridin-1(2H)-yl}-N-hydroxy-2-methyl-2-(methylsulfonyl)butanamide], the EC-1 (MIC) in test [1] came to 0.25 µg/mL. Further, the PA-7 (MIC) in test [2] is 4 µg/mL.
As to `C[C@@](CCn1ccc(-c2ccc(Oc3ncccc3Cl)cc2)cc1=O)(C(=O)NO)S(C)(=O)=O` [Example 440, (2R)-4-[4-{4-[(3-chloropyridin-2-yl)oxy]phenyl}-2-oxopyridin-1(2H)-yl]-N-hydroxy-2-methyl-2-(methylsulfonyl)butanamide], the EC-1 (MIC) in test [1] was 0.06 µg/mL. For the same compound, the PA-7 (MIC) in test [2] worked out at 2 µg/mL.
`C[C@@](CCn1ccc(-c2ccc(C(F)(F)F)nc2)cc1=O)(C(=O)NO)S(C)(=O)=O` [Example 331]: the EC-1 (MIC) in test [1] was determined as 0.25 µg/mL. In test [2], the PA-7 (MIC) came out at 32 µg/mL.
`CC(CCn1ccc(-c2ccc(Oc3ccccc3)cc2)cc1=O)(C(=O)NO)S(C)(=O)=O` (stereo not drawn) [Example 156, N-hydroxy-2-methyl-2-(methylsulfonyl)-4-[2-oxo-4-(4-phenoxyphenyl)pyridin-1(2H)-yl]butanamide] showed an EC-1 (MIC) in test [1] (setting [3]) of less than 0.06 µg/mL. In test [2] (setting [3]), this compound gave a PA-7 (MIC) of 4 µg/mL.
In test [1], `C[C@@](CCn1ccc(-c2ccc(CCCO)c(F)c2)cc1=O)(C(=O)NO)S(C)(=O)=O` [Example 344, (2R)-4-{4-[3-fluoro-4-(3-hydroxypropyl)phenyl]-2-oxopyridin-1(2H)-yl}-N-hydroxy-2-methyl-2-(methylsulfonyl)butanamide] registered an EC-1 (MIC) of 4 µg/mL. Moreover, the PA-7 (MIC) in test [2] is 2 µg/mL.
For `C[C@@](CCn1ccc(-c2ccc(-n3ncc(O)n3)cc2)cc1=O)(C(=O)NO)S(C)(=O)=O` [Example 407, (2R)-N-hydroxy-4-{4-[4-(4-hydroxy-2H-1,2,3-triazol-2-yl)phenyl]-2-oxopyridin-1(2H)-yl}-2-methyl-2-(methylsulfonyl)butanamide], in that order: 16 µg/mL and 32 µg/mL.
For `CC(CCn1ccc(-c2cc(Cl)c(OCCO)cc2Cl)cc1=O)(C(=O)NO)S(C)(=O)=O` (stereo not drawn) [Example 244, 4-{4-[2,5-dichloro-4-(2-hydroxyethoxy)phenyl]-2-oxopyridin-1(2H)-yl}-N-hydroxy-2-methyl-2-(methylsulfonyl)butanamide] the same measures were 32 µg/mL and greater than 64 µg/mL.
In turn, `Cc1c(-c2ccc(Cl)cc2F)ccn(CC[C@](C)(C(=O)NO)S(C)(=O)=O)c1=O` [Example 394, (2R)-4-[4-(4-chloro-2-fluorophenyl)-3-methyl-2-oxopyridin-1(2H)-yl]-N-hydroxy-2-methyl-2-(methylsulfonyl)butanamide] yielded an EC-1 (MIC) in test [1] of 1 µg/mL. In addition, the PA-7 (MIC) in test [2] was 1 µg/mL.
`CC(CCn1ccc(-c2cccc3cccnc23)cc1=O)(C(=O)NO)S(C)(=O)=O` (stereo not drawn) [Example 189, N-hydroxy-2-methyl-2-(methylsulfonyl)-4-(2-oxo-4-quinolin-8-ylpyridin-1(2H)-yl)butanamide]: the EC-1 (MIC) in test [1] was greater than 64 µg/mL. The compound also registered a PA-7 (MIC) in test [2] of 64 µg/mL.
Compound `Cc1c(Cl)cccc1-c1ccn(CCC(C)(C(=O)NO)S(C)(=O)=O)c(=O)c1` (stereo not drawn) [Example 266, 4-[4-(3-chloro-2-methylphenyl)-2-oxopyridin-1(2H)-yl]-N-hydroxy-2-methyl-2-(methylsulfonyl)butanamide] returned an EC-1 (MIC) in test [1] of 4 µg/mL. Moreover, in test [2], the PA-7 (MIC) was found to be 4 µg/mL.
In test [1], `Cc1cnc2cc(-c3ccn(CCC(C)(C(=O)NO)S(C)(=O)=O)c(=O)c3)ccc2c1` (stereo not drawn) [Example 308, N-hydroxy-2-methyl-4-[4-(3-methylquinolin-7-yl)-2-oxopyridin-1(2H)-yl]-2-(methylsulfonyl)butanamide] came in with an EC-1 (MIC) of 2 µg/mL. Moreover, in test [2], the PA-7 (MIC) amounted to 4 µg/mL.
For `Cc1cc(-c2ccn(CCC(C)(C(=O)NO)S(C)(=O)=O)c(=O)c2)ccc1OCCO` (stereo not drawn) [Example 235, N-hydroxy-4-{4-[4-(2-hydroxyethoxy)-3-methylphenyl]-2-oxopyridin-1(2H)-yl}-2-methyl-2-(methylsulfonyl)butanamide], in that order: 8 µg/mL and 8 µg/mL.
For `Cn1nnc(-c2ccc(-c3ccn(CC[C@](C)(C(=O)NO)S(C)(=O)=O)c(=O)c3)cc2)n1` [Example 376] the same measures were 0.5 µg/mL and 2 µg/mL.
